According to US6500794B1, “Granulated bleaching activator” (Kao Corporation, priority 1999, dated 2002):

Experiment: Solubility of component (a) in aqueous nonionic surfactant solution, requirements (1) and (2)
Format: physicochemical
Conditions: 10° C., stirred five minutes; for solubility of the component (a), Condition (2): 0.1 g component (a) (A-1) in 0.25 g nonionic surfactant / 500 ml water; for solubility of the component (a), Condition (1): 0.1 g component (a) (A-1) in 10 g nonionic surfactant / 500 ml water
Protocol: (1) when 0.1 g of the component (a) is added to an aqueous solution produced by dissolving 10 g of the component (b1) in 500 ml of water at 10° C. and the mixture was stirred for five minutes, the solubility of the component (a) just after the stirring is 50% by weight or more; and
Herein, the solubility was measured using the following method.
Method for Measuring Solubility
1 l glass beaker (cylinder type; inside diameter: 105 mm, height: 15 cm) was charged with 500 ml of an aqueous solution in which the component (b1) was dissolved in an amount corresponding to the requirements (1) and (2) and the solution was stirred (using a magnetic stirrer; a cylindrical stirrer piece with a diameter of 15 mm and a length of 52 mm, 200 rpm) in a thermostat kept at 10° C. At the stage in which the temperature of the solution reached 10° C., the powdery component (a) having a bulk density of […] and containing 10% by weight or less of particles with a grain size of 125 μm was added thereto in a prescribed amount and then the solution was stirred for 5 minutes. Thereafter, the solution was filtered through a membrane filter (Cellulose Nitrate A045A047A, 0.47 μm, manufactured by […]) and the content of the component (a) in the filtrate was determined by using high performance liquid chromatography to determine the solubility by the following formula. [formula]
Granulated Bleaching activator having the compositions shown in Table 2 were prepared by using the bleaching activator A-1 and nonionic surfactants B-1 and B-2 described below according to the method described below. Also, granulated bleaching activators were prepared in the same manner as above by using B′-1, B′-2 and B′-3 as comparative nonionic surfactants. Each solubility of these nonionic surfactants in the conditions (1) and (2) are shown below.

solubility of the component (a), Condition (2) [%]	solubility of the component (a), Condition (1) [%]	Substance
7	79	C12H25O—(EO)5—(PO)2—(EO)5—H [Example B-1]
32	82	C12H25O—(EO)7—H [B′-1]
0.5	81	C12H25O—(EO)10—(PO)4—H [Example B-2]
3	46	C12H25O—(EO)15—H [B′-3]
